From paper PMC8466754, “Esterase-Sensitive Prodrugs of a Potent Bisubstrate Inhibitor of Nicotinamide N-Methyltransferase (NNMT) Display Cellular Activity” (Biomolecules, 2021)
Blank lines part the entries; values can stand above or below the compound they belong to.

What was measured:
[1] = system: HSC-2 human oral cancer cell line; assay: MTT cell viability assay, HSC-2; format: cell-based
Experimental: (§1) HSC-2 human oral cancer cell line, T24 human bladder cancer cell line, and A549 human lung cancer line were cultured in DMEM/F12 medium and supplemented with 10% fetal bovine serum and 50 μg/mL gentamicin at 37 °C in a humidified 5% CO2 incubator. For each compound tested, powder was dissolved in DMSO at 100 mM concentration. This stock solution was then diluted in culture medium to final concentration values ranging between 1 µM and 100 µM. For each sample, DMSO was kept constant at 0.1% final concentration. The day before starting treatment, cells were seeded in 96-well plates, at a density of 2000 cells/well. Cells were allowed to attach overnight and then incubated with compounds at different concentrations, or with DMSO only, for 24, 48, and 72 h. All experiments were performed in triplicate.
(§2) Cell proliferation was determined using a colorimetric assay with 3-(4,5-dimethylthiazol-2-yl)-2,5-diphenyl tetrazolium bromide (MTT). The MTT assay measures the conversion of MTT to insoluble formazan by dehydrogenase enzymes of the intact mitochondria of living cells. Cell proliferation was evaluated by measuring the conversion of the tetrazolium salt MTT to formazan crystals upon treatment with compounds or DMSO only for 24, 48, and 72 h. Briefly, cells were incubated for 2 h at 37 °C with 100 µL fresh culture medium containing 5 µL of MTT reagent (5 mg/mL in PBS). The medium was removed and 200 µL isopropanol were added. The amount of formazan crystals formed correlated directly with the number of viable cells. The reaction product was quantified by measuring the absorbance at 540 nm using a plate reader. Experiments were repeated three times. Results were expressed as a percentage of the control (the control equals 100% and corresponds to the absorbance value of each sample at time zero) and presented as mean values ± standard deviation of three independent experiments performed in triplicate.

[2] = system: T24 human bladder cancer cell line; assay: MTT cell viability assay, T24; format: cell-based
Experimental: as §1, §2

[3] = system: A549 human lung cancer line; assay: MTT cell viability assay, A549; format: cell-based
Experimental: as §1, §2

NNMT = target: T1, NNMT (Homo sapiens, UniProt P40261); assay: 1-Methylnicotinamide (MNA) quantification in A549 cells (LC-MS); conditions: A549 lung carcinoma cells; 0.1–100 µM; 24-h treatment (Figure 4)
T1 sequence (P40261 1-264): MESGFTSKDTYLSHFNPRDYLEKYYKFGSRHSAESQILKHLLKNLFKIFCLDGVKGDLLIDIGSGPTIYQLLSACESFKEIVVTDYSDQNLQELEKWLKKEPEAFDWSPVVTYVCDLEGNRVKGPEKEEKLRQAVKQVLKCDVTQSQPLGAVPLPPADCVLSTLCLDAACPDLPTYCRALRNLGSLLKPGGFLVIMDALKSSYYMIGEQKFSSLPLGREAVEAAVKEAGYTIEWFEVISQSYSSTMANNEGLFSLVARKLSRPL
Experimental: Human lung adenocarcinoma line (A549, ATCC, Manassas, VA, USA) was cultured according to the provider’s indications and seeded in 6-well format. […] After incubation, effluent samples were taken and frozen (−80 °C) for further MNA measurement. Cells also were collected, centrifuged (2 × 500 G/5 min.), and frozen both for the measurement of intracellular MNA and for BCA protein assay.
The quantification of 1-methylnicotinamide (MNA), nicotinamide (NA), nicotinic acid (NicA), 1-methyl-2-pyridone-5-carboxamide (Met-2Pyr), and 1-methyl-4-pyridone-5-carboxamide (Met-4Pyr) was performed by applying ultra-high pressure liquid chromatography coupled to tandem mass spectrometry (UPLC-MS) according to the methodology previously described with minor modifications [35]. A UPLC-MS system comprised of a UPLC Ultimate 3000 (Dionex, Thermo Scientific, Waltham, MA, USA) connected to a TSQ Quantum Ultra mass spectrometer (Thermo Scientific, Waltham, MA, USA) equipped with a heated electrospray ionization interface (HESI-II Probe, Waltham, MA, USA) was used. Chromatographic separation of analytes was carried out on an Aquasil C18 analytical column (4.6 mm × 150 mm, 5 mm; Thermo Scientific, Waltham, MA, USA) under isocratic elution using acetonitrile with 0.1% of formic acid (A) and 5 mM ammonium formate in water (B) as mobile phases delivered at the flow rate of 0.8 mL/min (A:B, 80:20, v/v). The cell pellet was resuspended in 60 µL of deionized water and 50 µL of suspension was transferred to a fresh test tube. An amount of 50 µL of effluent sample was used for the measurement of extracellular MNA. The internal standard (IS) containing MNA-d3 was added to each sample (5 µL) obtaining the final concentration of 500 ng/mL. After the sample mixing, the proteins were precipitated using 100 μL of acidified acetonitrile (0.1% of formic acid), and samples were mixed (10 min), cooled at 4 °C (15 min), and finally centrifuged (15,000× g, 15 min, 4 °C). A clear supernatant was transferred to a chromatographic vial and directly injected (5 µL) into UPLC-MS system. […] The concentration of MNA was calculated based on the calibration curve plotted for the analyte as the relationship between the peak area ratios of analyte/IS to the nominal concentration of the analyte. The concentration of analytes was normalized to milligram of proteins, which was assessed using a Pierce^TM BCA Protein Assay Kit (Thermo Fisher, Waltham, MA, USA) and a Synergy4 multiplate reader (BioTek, Winooski, VT, USA). […]
Using this assay, the levels of MNA produced by NNMT in an A549 lung carcinoma cell line can be quantified by means of a sensitive LC-MS method.

[4] = Ester stability assay in buffer (RP-HPLC); format: physicochemical; conditions: for percentage of compound peak area present after 16 h of incubation, PBS: PBS buffer pH 7.4, 16 h; for percentage of compound peak area present after 16 h of incubation, PBS / percentage of compound peak area present after 16 h of incubation, Tris: room temperature, 1 mM compound; for percentage of compound peak area present after 16 h of incubation, Tris: Tris buffer pH 8.4, 16 h; for hydrolytic stability in buffer (in words): PBS pH 7.4 and Tris pH 8.4, over 16 h
Experimental: The prodrugs were evaluated for their stability in both PBS buffer at pH 7.4 and Tris buffer at pH 8.4. The compounds were dissolved in DMSO at a concentration of 40 mM and diluted with the respective buffer to a final concentration of 1 mM. Compounds were tested directly (t0) and subsequently every 2 h over a time period of 16 h by HPLC. Compounds were eluted from a Dr. Maisch ReproSil-Pur C18 column (4.6 × 250 mm, 10 μm particle size, Dr. Maisch, Ammerbuch-Entringen, Germany) with the following solvent system at a flow rate of 0.5 mL/min: solvent A, 0.1% trifluoroacetic acid in water/acetonitrile (95:5); solvent B, 0.1% trifluoroacetic acid in water/acetonitrile (5:95). Gradient elution was as follows: 100:0 (A/B) to 0:100 (A/B) over 8 min, 0:100 (A/B) for 1 min, then reversion back to 100:0 (A/B) over 1 min, 100:0 (A/B) for 2 min. The formation of the parent compound was evaluated and normalized by measuring the peak area at 214 nm and comparing it to the initial timepoint.
All prodrugs prepared were first tested for their inhibitory activity against NNMT using a biochemical enzymatic activity assay. […] Both these buffers and pHs have been used in the different biochemical and cellular assays described in this report. Compounds were dissolved in DMSO at a concentration of 40 mM and diluted with the respective buffer to a final concentration of 1 mM. Compound stability was then assessed by RP-HPLC directly (t0) and subsequently every 2 h over a time period of 16 h. […] Even for the rather labile methyl ester 12b, the TML group in 14b results in a decrease in hydrolysis of the methyl ester.

pig liver esterase (PLE) = assay: Esterase-mediated hydrolysis to the parent compound (RP-HPLC); format: in vitro ADME
Experimental: The conversion of the prodrugs to the parent compound by esterases was evaluated using pig liver esterase (PLE, 18 U/mg, Sigma-Aldrich, St. Louis, MO, USA) in PBS at pH 7.4. Compounds were dissolved in DMSO at 40 mM, diluted to a final concentration of 2 mM with PBS, and added to an equal volume of a 10 mg/mL solution of PLE in PBS (pH 7.4), resulting in final concentrations of 2.5% DMSO, 1 mM compound, and 5 mg/mL PLE. At different time-points 50 µL aliquots were taken, added to 100 µL acetonitrile to precipitate the proteins, and centrifuged for 5 min at 10,000 rpm. The supernatant was subsequently analyzed by HPLC as described in Section 2.2 above.
The next step was to establish whether compounds 12e and 14e are converted to the parent compound in the presence of an esterase.

Compound: CNc1ccc(C(N)=O)cn1 [Compound 6-MANA, 6-methylamino-nicotinamide, reference compound]
effect on cell viability (MTT) ([1]; 100 µM, 24, 48 and 72 h): no effect | effect on cell viability (MTT) ([1]; 1 and 10 µM, 24, 48 and 72 h): no effects | effect on cell viability (MTT) ([2]; 100 µM, 24, 48 and 72 h): no effect | effect on cell viability (MTT) ([2]; 1 and 10 µM, 24, 48 and 72 h): no effects | effect on cell viability (MTT) ([3]; 100 µM, 24, 48 and 72 h): no effect | effect on cell viability (MTT) ([3]; 1 and 10 µM, 24, 48 and 72 h): no effects | effect on cellular MNA levels (NNMT): high concentrations of both 6-MANA and GYZ-319 are required to substantially decrease the levels of MNA

percentage of compound peak area present after 16 h of incubation, PBS [4]: 68.36% | percentage of compound peak area present after 16 h of incubation, Tris [4]: 54.84%
Compound: CCOC(=O)[C@@H](N)CCN(C/C=C/c1ccc(C#N)cc1)C[C@H]1O[C@@H](n2cnc3c(N)ncnc32)[C@H](O)[C@@H]1O [Compound 12c, Ethyl-(S)-2-amino-4-((((2R,3S,4R,5R)-5-(6-amino-9H-purin-9-yl)-3,4-dihydroxytetrahydrofuran-2-yl)methyl)((E)-3-(4-cyanophenyl)allyl)amino)butanoate]

Compound: CCOC(=O)[C@H](CCN(C/C=C/c1ccc(C#N)cc1)C[C@H]1O[C@@H](n2cnc3c(N)ncnc32)[C@H](O)[C@@H]1O)NC(=O)CC(C)(C)c1c(C)cc(C)cc1OC(C)=O [Compound 14c, Ethyl-(S)-2-(3-(2-acetoxy-4,6-dimethylphenyl)-3-methylbutanamido)-4-((((2R,3S,4R,5R)-5-(6-amino-9H-purin-9-yl)-3,4-dihydroxytetrahydrofuran-2-yl)methyl)((E)-3-(4-cyanophenyl)allyl)amino)butanoate]
percentage of compound peak area present after 16 h of incubation, PBS [4]: 90.44% | percentage of compound peak area present after 16 h of incubation, Tris [4]: 87.00%

Compound: CC(=O)Oc1cc(C)cc(C)c1C(C)(C)CC(=O)N[C@@H](CCN(C/C=C/c1ccc(C#N)cc1)C[C@H]1O[C@@H](n2cnc3c(N)ncnc32)[C@H](O)[C@@H]1O)C(=O)OC(C)C [Compound 14e, Isopropyl-(S)-2-(3-(2-acetoxy-4,6-dimethylphenyl)-3-methylbutanamido)-4-((((2R,3S,4R,5R)-5-(6-amino-9H-purin-9-yl)-3,4-dihydroxytetrahydrofuran-2-yl)methyl)((E)-3-(4-cyanophenyl)allyl)amino)butanoate]
percentage of compound peak area present after 16 h of incubation, PBS [4]: 91.13% | hydrolytic stability in buffer (in words) [4]: most stable | percentage of compound peak area present after 16 h of incubation, Tris [4]: 87.69% | time to full conversion to the parent compound (pig liver esterase (PLE); 5 mg/mL PLE, PBS pH 7.4, 1 mM compound): ≤ 4 h | hydrolysis in the absence of PLE (pig liver esterase (PLE); PBS pH 7.4, without PLE): no hydrolysis was observed | effect on cell viability (MTT) ([1]; 100 µM, 24, 48 and 72 h): time dependent reduction in cell viability | effect on cell viability (MTT) ([1]; 1 and 10 µM, 24, 48 and 72 h): no effects | effect on cell viability (MTT) ([2]; 100 µM, 24, 48 and 72 h): time dependent reduction in cell viability | effect on cell viability (MTT) ([2]; 1 and 10 µM, 24, 48 and 72 h): no effects | effect on cell viability (MTT) ([3]; 100 µM, 24, 48 and 72 h): time dependent reduction in cell viability | effect on cell viability (MTT) ([3]; 1 and 10 µM, 24, 48 and 72 h): no effects | effect on cellular MNA levels (NNMT): even further enhanced

Compound: COC(=O)[C@H](CCN(C/C=C/c1ccc(C#N)cc1)C[C@H]1O[C@@H](n2cnc3c(N)ncnc32)[C@H](O)[C@@H]1O)NC(=O)CC(C)(C)c1c(C)cc(C)cc1OC(C)=O [Compound 14b, Methyl-(S)-2-(3-(2-acetoxy-4,6-dimethylphenyl)-3-methylbutanamido)-4-((((2R,3S,4R,5R)-5-(6-amino-9H-purin-9-yl)-3,4-dihydroxytetrahydrofuran-2-yl)methyl)((E)-3-(4-cyanophenyl)allyl)amino)butanoate]
percentage of compound peak area present after 16 h of incubation, PBS [4]: 88.08% | percentage of compound peak area present after 16 h of incubation, Tris [4]: 73.88%

percentage of compound peak area present after 16 h of incubation, PBS [4]: 71.96% | percentage of compound peak area present after 16 h of incubation, Tris [4]: 61.32%
Compound: CCCOC(=O)[C@@H](N)CCN(C/C=C/c1ccc(C#N)cc1)C[C@H]1O[C@@H](n2cnc3c(N)ncnc32)[C@H](O)[C@@H]1O [Compound 12d, Propyl-(S)-2-amino-4-((((2R,3S,4R,5R)-5-(6-amino-9H-purin-9-yl)-3,4-dihydroxy-tetrahydrofuran-2-yl)methyl)((E)-3-(4-cyanophenyl)allyl)amino)butanoate]

percentage of compound peak area present after 16 h of incubation, PBS [4]: 36.97% | percentage of compound peak area present after 16 h of incubation, Tris [4]: 22.59%
Compound: COC(=O)[C@@H](N)CCN(C/C=C/c1ccc(C#N)cc1)C[C@H]1O[C@@H](n2cnc3c(N)ncnc32)[C@H](O)[C@@H]1O [Compound 12b, Methyl-(S)-2-amino-4-((((2R,3S,4R,5R)-5-(6-amino-9H-purin-9-yl)-3,4-dihydroxy-tetrahydrofuran-2-yl)methyl)((E)-3-(4-cyanophenyl)allyl)amino)butanoate]

Compound: CCCOC(=O)[C@H](CCN(C/C=C/c1ccc(C#N)cc1)C[C@H]1O[C@@H](n2cnc3c(N)ncnc32)[C@H](O)[C@@H]1O)NC(=O)CC(C)(C)c1c(C)cc(C)cc1OC(C)=O [Compound 14d, Propyl-(S)-2-(3-(2-acetoxy-4,6-dimethylphenyl)-3-methylbutanamido)-4-((((2R,3S,4R,5R)-5-(6-amino-9H-purin-9-yl)-3,4-dihydroxytetrahydrofuran-2-yl)methyl)((E)-3-(4-cyanophenyl)allyl)amino)butanoate]
percentage of compound peak area present after 16 h of incubation, PBS [4]: 90.30% | percentage of compound peak area present after 16 h of incubation, Tris [4]: 87.52%

percentage of compound peak area present after 16 h of incubation, PBS [4]: 33.43% | hydrolytic stability in buffer (in words) [4]: least stable | percentage of compound peak area present after 16 h of incubation, Tris [4]: 21.60%
Compound: N#Cc1ccc(/C=C/CN(CC[C@H](N)C(=O)OCc2ccccc2)C[C@H]2O[C@@H](n3cnc4c(N)ncnc43)[C@H](O)[C@@H]2O)cc1 [Compound 12f, Benzyl-(S)-2-amino-4-((((2R,3S,4R,5R)-5-(6-amino-9H-purin-9-yl)-3,4-dihydroxy-tetrahydrofuran-2-yl)methyl)((E)-3-(4-cyanophenyl)allyl)amino)butanoate]
